The results in this text go back to US20020054872A1, “Peptides for the treatment of systemic lupus erythematosus and methods of treating systemic lupus erythematosus” (priority 1997, published 2002).

What is called IC50 is the concentration at which inhibition is half-maximal.

Residues, ends and D or L forms follow the SMILES beside them.

For assay [1], the system named is C72 murine anti-DNA antibody. In words: Competitive inhibition of C72 binding to 5200. Further details: species or system mouse. Particulars: FIG. 2, incubation with inhibiting agent. Here is the method: The binding of C72 to 5200 was tested before and after incubation with 5200, R38, R18, Heparin, DNA and DNase. […] The percent inhibition is the percent reduction of the O.D. after incubation with the inhibiting agent.

The subject of assay [2] is C72 murine anti-DNA antibody. In words: Direct binding ELISA of C72 to laminin peptides. More on the design: species or system mouse. The following applies: for binding of C72 murine anti-DNA antibody to laminin peptides: FIG. 1, C72 conditioned medium in various dilutions; for C72 Binding: direct binding ELISA test after one (1) hour. How it is done: The C72 murine anti-DNA antibody has been derived from (NZB×NZW)F1 lupus mice by the hybridoma technique as described in Eilat D. et al J. Immunol. […] The monoclonal anti-DNA antibodies DIL6 and B3 were derived from lupus patients by hybridoma technique as described in Ehrenstein M. R. et al J. Clin. Invest. (1994) 93 1787-1799 and Ehrenstein M. R. et al Kidney Inter. (1995) 48 705-711.
Wells were coated with 10 μg/ml of the peptides, blocked with 1% BSA (bovine serum albumin) in PBS (pH 7,4), reacted with appropriately diluted serum or urine samples or monoclonal antibodies, incubated with anti-human or anti-mouse immunoglobulin enzyme conjugated to alkaline phosphatase and detected by addition of substrate (Sigma 100 Phosphatase Substrate Tablets) and color development using an Organon Teknika Microwell System spectrometer at wavelength of 405 nm.
The interaction of the C72 murine anti-DNA antibody with laminin peptides was analyzed by ELISA as described above. The C72 conditioned medium was diluted in PBS in various dilutions.
The peptides of the present invention were tested for their ability to bind directly with C72 murine anti-DNA antibodies and B3 human anti-DNA antibodies according to the method described hereinabove.

The test system of a further assay is C72 antibody. In words: Immunoabsorption of C72 on R38 column, anti-R38 ELISA. The assay is classed as binding, mouse. How it is done:
(§1) The R38 peptide was dissolved in the coupling buffer (0.2M NaHCO3, 0.5M NaCl, pH 8.3) in a concentration of 1 mg/ml in 5 ml coupling buffer. A 5 ml N-hydroxysuccinimide (NHS)-activated Sepharose™ High Performance Column (Pharmacia 17-0717-01) is used. The isopropanol in the column was washed out from the column with 30 ml of cold (4° C.) 1 mM HCl and 5 ml of the peptide solution was then injected onto the column with a syringe (2.5 ml/minute). The column was sealed and stood for 30 minutes at room temperature. The column was then washed with 30 ml Buffer A (0.5 M ethanolamine, 0.5 M NaCl, pH 8.3) and 30 ml Buffer B (0.5 M acetate, 0.5 M NaCl, pH 4) consecutively three times, and then with neutral pH buffer (0.05 M Na2HP04 and 0.1% NaN3).
(§2) The column was washed with 15 ml PBS (phosphate buffered saline), followed by 15 ml elution buffer (0.1 M glycine HCl) and then 50 ml PBS. The C72 antibody or the patients' plasma samples were filtered through a 0.45 microm filter. The samples were applied onto the column by a fitted syringe at a rate of 2.5 ml/min. The column was then washed with 5 ml PBS and the flow-through was applied to the column again. The binding of the samples (original and flow-through) to R38 was tested by the anti-R38 ELISA test.
(§3) In the instant example, the mouse C72 and the SLE patients' plasma were applied to the R38 column. Their anti-R38 binding was evaluated by ELISA in the original samples and in the flow-through of the column.
In general terms: ELISA stands for enzyme-linked immunosorbent assay.

Assay [3] relates to anti-R38 antibodies in patients' plasma. In words: Immunoabsorption of plasma on R38 column, anti-R38 ELISA. The class given is binding, human. How it is done:
as §1, §2, §3

A further assay has as its system MRL/lpr/lpr mice. In words: Effect on clinical course of murine SLE (survival, renal histology). Particulars: 50 μg i.p. three times a week, from 6 weeks old, FIG. 9. The assay is classed as in vivo, mouse. How it is done:
To test whether R38 peptides can affect the course of SLE we have tested their effect on MRL/lpr/lpr mice disease. 60 μg of 5200 (R38′ alone or in peptide combinations, 30 μg of each) in 0.1 ml PBS, was injected i.p. to 6 week old female MLR/lpr/lpr mice once a week for 16 week and the mice were evaluated for survival (FIG. 8), and for renal histology. 50 μg of 5100 (R38) or 5300 (human R38) in 0.1 ml PBS, was injected i.p. to 6 week old MRL/lpr/lpr mice three times a week and the mice were evaluated for survival (FIG. 9), and for renal histology. Control mice received 0.1 ml phosphate buffer solution. Each test and control group contained 12-15 mice.
The survival of MRL/lpr/lpr mice treated with […], 5200 or 5300 was compared to that of PBS treated mice. […] In FIGS. 8 and 9 the time in days shown on the x axis relates to the age of the mice.

In assay [4] the target is C72 murine anti-DNA antibody. In words: competitive inhibition ELISA: C72 preincubated with peptide, binding to coated 5100 (R38).

For DNase [reference compound], the “inhibition of the binding of C72 to 5200” value in assay [1] was “not by a control peptide or treatment with DNase”. In the case of “KATPMLKMRTSFHGCIK [Peptide R37, residues 2615-2631 of mouse laminin α chain]”, the “binding of C72 murine anti-DNA antibody to laminin peptides” value in assay [2] is “binding”.

heparin [reference compound]: the “inhibition of the binding of C72 to 5200” value in assay [1] is given as “inhibition”. As for DNA [reference compound], the “inhibition of the binding of C72 to 5200” value in assay [1] is on record as “inhibition”. In the case of `CC[C@H](C)[C@H](NC(=O)[C@H](CC(N)=O)NC(=O)[C@H](CC(C)C)NC(=O)[C@H](CC(=O)O)NC(=O)[C@H](CC(C)C)NC(=O)[C@H](CCCNC(=N)N)NC(=O)[C@@H](NC(=O)[C@H](CCCCN)NC(=O)[C@H](Cc1ccc(O)cc1)NC(=O)CNC(=O)[C@H](CCC(=O)O)NC(=O)[C@@H](N)CCCCN)C(C)C)C(=O)N[C@H](C(=O)N[C@@H](CC(C)C)C(=O)N[C@@H](CCC(=O)O)C(=O)N[C@@H](Cc1ccccc1)C(=O)N[C@@H](CCCNC(=N)N)C(=O)N[C@H](C(=O)N[C@H](C(=O)N[C@@H](CO)C(=O)N[C@@H](CCCCN)C(=O)O)[C@@H](C)O)[C@@H](C)O)[C@@H](C)O` [Peptide 5100] (H-KEGYKVRLDLNITLEFRTTSK-OH; N-terminus and C-terminus assumed), the “Binding to R38 (O.D.)” value in the assay on C72 antibody (C72, after immunoabsorption on R38 column) stood at 0.02 O.D; in the assay on C72 antibody (C72, original sample), 1.96 O.D; in assay [3] (Healthy donor's plasma, after immunoabsorption), 0.06 O.D; in assay [3] (Healthy donor's plasma, original sample), 0.26 O.D; in assay [3] (SLE patient 1 plasma, after immunoabsorption) it was 0.6 O.D; in assay [3] (SLE patient 1 plasma, original sample), 1.5 O.D. Besides, the “Binding to R38 (O.D.)” value in assay [3] (SLE patient 2 plasma, after immunoabsorption) is 1.6 O.D; in assay [3] (SLE patient 2 plasma, original sample) it was 2.3 O.D. Moreover, the “anti-R38 activity removed by affinity absorption on the column” value in the assay on C72 antibody (mouse monoclonal C72) turned out to be 99%. In addition, the “inhibition of the binding of C72 to 5200” value in assay [1] is listed as “inhibition”. Also, the “antibodies removed by affinity absorption on the column” value in assay [3] (human SLE patients' plasma) is given as 30%-60%. In the assay on MRL/lpr/lpr mice, the survival result is reported as “significantly higher than that of control mice”. Take `CC[C@H](C)[C@H](NC(=O)[C@H](CC(N)=O)NC(=O)[C@H](CC(C)C)NC(=O)[C@H](CC(=O)O)NC(=O)[C@H](CC(C)C)NC(=O)[C@H](CCCNC(=N)N)NC(=O)[C@@H](NC(=O)[C@H](CCCCN)NC(=O)[C@H](Cc1ccc(O)cc1)NC(=O)CNC(=O)[C@H](CCC(=O)O)NC(=O)[C@@H](N)CCCCN)C(C)C)C(=O)N[C@H](C(=O)N[C@@H](CC(C)C)C(=O)N[C@@H](C)C(=O)N[C@@H](Cc1ccccc1)C(=O)N[C@@H](CCCNC(=N)N)C(=O)N[C@H](C(=O)N[C@H](C(=O)N[C@@H](CO)C(=O)N[C@@H](CCCCN)C(=O)O)[C@@H](C)O)[C@@H](C)O)[C@@H](C)O` [Peptide 5110] (H-KEGYKVRLDLNITLAFRTTSK-OH; N-terminus and C-terminus assumed): the “C72 Binding” value in assay [2] turned out to be 2.5 O.D. Consider “KQNCLSSRASFRGCVRNLRLSR [Peptide R30, residues 3011-3032 of mouse laminin α chain]”, for which the “binding of C72 murine anti-DNA antibody to laminin peptides” value in assay [2] is given as “binding”. For `CC[C@H](C)[C@H](NC(=O)[C@H](CC(N)=O)NC(=O)[C@H](CC(C)C)NC(=O)[C@H](CC(=O)O)NC(=O)[C@H](CC(C)C)NC(=O)[C@H](C)NC(=O)[C@@H](NC(=O)[C@H](C)NC(=O)[C@H](Cc1ccc(O)cc1)NC(=O)CNC(=O)[C@H](CCC(=O)O)NC(=O)[C@H](C)N)C(C)C)C(=O)N[C@H](C(=O)N[C@@H](CC(C)C)C(=O)N[C@@H](CCC(=O)O)C(=O)N[C@@H](Cc1ccccc1)C(=O)N[C@@H](C)C(=O)N[C@H](C(=O)N[C@H](C(=O)N[C@@H](CO)C(=O)N[C@@H](C)C(=O)O)[C@@H](C)O)[C@@H](C)O)[C@@H](C)O` [Peptide 5104] (H-AEGYAVALDLNITLEFATTSA-OH; N-terminus and C-terminus assumed), the “C72 Binding” value in assay [2] is on record as 0.08 O.D.

B1: 5108 peptide, Ala subst. of 5100 at all negative a.a. (peptide)
peptide: KAGYKVRLALNITLAFRTTSK
In the case of B1, the IC50 in assay [4] turned out to be 2 µg/mL.

B2: 5106 peptide, charge subst. to neg. at 5100 a.a. 7 (peptide)
peptide: KEGYKVELDLNITLEFRTTSK
On to B2, for which, in assay [4], the IC50 is 2.5 µg/mL.

B3: 5102 peptide, Res. 6-17 of 5100 (peptide)
peptide: VRLDLNITLEFR
In assay [4], B3 yielded an IC50 of 30 µg/mL.

B4: 5109 peptide, Ala subst. of 5100 a.a. 9 (peptide)
peptide: KEGYKVRLALNITLEFRTTSK
Molecule B4 returned a half-maximal inhibitory concentration (IC50) in assay [4] of 0.7 µg/mL.

B5: 5110 peptide, Ala subst. of 5100 a.a. 15 (peptide)
peptide: KEGYKVRLDLNITLAFRTTSK
As to B5, in assay [4], the IC50 worked out at 0.7 µg/mL.

B6: R38 peptide (5100), mouse laminin alpha chain residues 2890-2910 (peptide)
peptide: KEGYKVRLDLNITLEFRTTSK
Molecule B6 displayed an IC50 in assay [4] of 10 µg/mL.

B7: 5200 peptide, mouse R38 analog (peptide)
peptide: KEGYKVRLDLNTTLEFRTTSK
In the case of B7, the IC50 in assay [4] was 10 µg/mL.

B8: 5101 peptide, Res. 1-16 of 5100 (peptide)
peptide: KEGYKVRLDLNITLEF
Consider B8, for which, in assay [4], the IC50 is 5 µg/mL.

B9: 5107 peptide, charge subst. to neg. at 5100 a.a. 17 (peptide)
peptide: KEGYKVRLDLNITLEFETTSK
For the molecule B9, the IC50 in assay [4] is 85 µg/mL.
